The values below come from US20170056345A1 (priority 2014, published 2017).

SMILES strings stand for the structures.

The test system of one test is M. tuberculosis. Kind of test: time-kill curve method, bactericidal activity (CFU) on solid media at pH6. Format: cell-based. The conditions noted are these: FIG. 2. The method, then:
The synergistic effect of AHA in overcoming urea protection of M. tuberculosis and in enhancing the efficacy of PZA is illustrated.
We employed a time-kill curve method to determine the bactericidal activity of PZA and a combination of PZA and acetohydroxamic acid (AHA) against M. tuberculosis. We cultured M. tuberculosis on solid media at pH6. CFU values were determined for samples treated with pyrazinamide (PZA), urea at a typical body fluid concentration and acetohydroxamic acid. […] Consequently, our results provide that AHA acts not only as a PZA booster, but also as an anti-mycobacterial agent, in some instances, in a synergistic manner with the traditional anti-mycobacterial agent used.

The target of a further test is mycobacterial urease (Mycobacterium bovis, UniProt A1KJR2). Kind of test: cell-based. Also noted: species or system M. bovis BCG.
mycobacterial urease, sequence (A1KJR2 whole entry, looked up): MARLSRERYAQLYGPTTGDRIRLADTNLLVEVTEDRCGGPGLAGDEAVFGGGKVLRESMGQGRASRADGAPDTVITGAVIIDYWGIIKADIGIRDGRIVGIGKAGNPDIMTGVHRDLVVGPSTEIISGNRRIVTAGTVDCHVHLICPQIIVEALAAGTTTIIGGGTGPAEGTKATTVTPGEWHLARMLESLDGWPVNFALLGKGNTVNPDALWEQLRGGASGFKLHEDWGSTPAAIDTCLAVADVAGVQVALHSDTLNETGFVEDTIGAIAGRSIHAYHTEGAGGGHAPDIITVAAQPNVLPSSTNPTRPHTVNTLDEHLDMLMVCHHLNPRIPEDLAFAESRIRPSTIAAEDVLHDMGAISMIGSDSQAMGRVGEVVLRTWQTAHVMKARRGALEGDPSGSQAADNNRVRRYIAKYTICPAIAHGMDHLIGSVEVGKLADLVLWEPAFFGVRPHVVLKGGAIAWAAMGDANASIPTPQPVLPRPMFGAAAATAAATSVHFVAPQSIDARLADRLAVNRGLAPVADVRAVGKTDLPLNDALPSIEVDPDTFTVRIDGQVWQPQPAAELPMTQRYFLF

As to `CC(=O)NO` [acetohydroxamic acid], the “effect on kill rate” value in the test with M. tuberculosis (AHA combined with PZA (urea present), solid media pH6) was “substantially increased the kill rate”. In addition, the “effect on urea protection against the PZA kill” value in the test on M. tuberculosis (AHA with PZA and urea at a typical body fluid concentration, solid media pH6) is reported as “prevented urea protection”. Also, the IC50 at mycobacterial urease was in the range of 100 to 200 µM.
As for `NC(=O)c1cnccn1` [PZA, pyrazinamide], the “kill (bactericidal activity, CFU)” value in the test with M. tuberculosis (PZA alone, M. tuberculosis on solid media at pH6) is given as “modest”.
